Measured values reported in ChEMBL document CHEMBL1138531, “Pharmacokinetics of penicillin G in infants with a gestational age of less than 32 weeks” (Antimicrob Agents Chemother, 2007).

What was measured:
Type in all cases: ADME, organism-based
[1] = Clearance in preterm neonates with septicemia or invasive infections with gestational age of less than 32 weeks at 50000 U/kg, iv administered every 12 hrs; settings: human, in vivo
[2] = Volume of distribution in central compartment in preterm neonates with septicemia or invasive infections with gestational age of less than 32 weeks at 50000 U/kg, iv administered every 12 hrs; settings: human, in vivo, read-out: Vc
Homo sapiens [3] = assay: Apparent peripheral volume of distribution in preterm neonates with septicemia or invasive infections with gestational age of less than 32 weeks at 50000 U/kg, iv administered every 12 hrs; settings: in vivo
Homo sapiens [4] = assay: Intercompartmental clearance in preterm neonates with septicemia or invasive infections with gestational age of less than 32 weeks at 50000 U/kg, iv administered every 12 hrs; settings: in vivo
[5] = Volume of distribution at steady state in preterm neonates with septicemia or invasive infections with gestational age of less than 32 weeks at 50000 U/kg, iv administered every 12 hrs; settings: human, in vivo, read-out: Vdss
[6] = Elimination half life in preterm neonates with septicemia or invasive infections with gestational age of less than 32 weeks at 50000 U/kg, iv administered every 12 hrs; settings: human, in vivo, read-out: beta t1/2 (converted)
[7] = Clearance in iv dosed neonates with gestational age of 27 to 40 weeks; settings: human, in vivo
[8] = Volume of distribution in iv dosed neonates with gestational age of 27 to 40 weeks; settings: human, in vivo
[9] = Half life in iv dosed neonates with gestational age of 27 to 40 weeks; settings: human, in vivo
[10] = Volume of distribution in neonates; settings: human, in vivo

Structure (SMILES)	clearance [1] [mL/min]	Vd [2] [L]	Vp/F (Homo sapiens [3]) [L]	CL (Homo sapiens [4]) [L/h]	Vd [5] [L]	half-life [6] [h]	clearance [7] [mL/min/kg]	Vd [8] [L/kg]	half-life [9] [h]	Vd [10] [L/kg]
CC1(C)S[C@@H]2[C@H](NC(=O)Cc3ccccc3)C(=O)N2[C@H]1C(=O)O [PENICILLIN G]	1.72	0.359	0.152	0.774	0.54	3.9	2	0.61	3.8	0.45
CC1(C)S[C@@H]2[C@H](NC(=O)[C@H](N)c3ccccc3)C(=O)N2[C@H]1C(=O)O [AMPICILLIN]	–	–	–	–	–	–	–	–	–	0.3
CC1(C)S[C@@H]2[C@H](NC(=O)[C@H](N)c3ccc(O)cc3)C(=O)N2[C@H]1C(=O)O [AMOXICILLIN]	–	–	–	–	–	–	–	–	–	0.41
